Assay results from patent US20140041337A1, “Food Packaging Method” (Kureha Corporation, priority 2007, published 2014).

Test system: bacteria
Test: Summary of bacterial counting, Tables 1 to 4
Assay type: cell-based
Details: carbon dioxide gas 10 to 45 cm^3 per 100 g of the food (volume at 0° C. and 1 atm)
Method: The bacteria counts were determined as follows. The sliced beef was diluted with a tenfold amount of sterile physiological saline to give a test liquid. One (1) ml of the test liquid was placed in sterile Petri dishes. For the viable bacteria count, a standard agar medium (manufactured by NISSUI PHARMACEUTICAL CO., LTD.) was added and the bacteria were cultured at 37° C. for 2 days. For the coliform bacteria count, a desoxycholate agar medium (manufactured by NISSUI PHARMACEUTICAL CO., LTD.) was added and the bacteria were cultured at 37° C. for 1 day. The colonies that grew were counted. The psychrophilic bacteria count was determined as follows. The sliced pork was diluted with a tenfold amount of sterile physiological saline to give a test liquid. One (1) ml of the test liquid was placed in sterile Petri dishes. A YGA agar medium (manufactured by NISSUI PHARMACEUTICAL CO., LTD.) was added and the bacteria were cultured at 10° C. for 5 days. The colonies that grew were counted.

In the case of `O=C=O` [carbon dioxide gas, carbon dioxide], the bacterial growth was “inhibits bacterial growth”.
